Laboratory results taken from ChEMBL document CHEMBL3091293, “The synthesis and biodistribution of [(11)C]metformin as a PET probe to study hepatobiliary transport mediated by the multi-drug and toxin extrusion transporter 1 (MATE1) in vivo” (Bioorg Med Chem, 2013).

Assays:
Format in all cases: ADME, organism-based
Liver [1] = assay: Drug uptake in liver of ddY mouse at 127 +/- 35 MBq/kg, iv measured up to 6 to 7 mins by microPET image analysis in presence of MATE1 inhibitor pyrimethamine; settings: in vivo
[2] = Drug uptake in urinary bladder of ddY mouse at 127 +/- 35 MBq/kg, iv measured up to 4.5 mins by microPET image analysis; settings: in vivo, 0.075 h
Kidney [3] = assay: Drug uptake in kidney of ddY mouse at 127 +/- 35 MBq/kg, iv measured up to 4.5 mins by microPET image analysis; settings: in vivo, 0.075 h
Mus musculus [4] = assay: Biodistribution in remaining body parts of ddY mouse at 5.6 +/- 2.1 MBq, iv measured per gram of tissue at 90 mins by gamma-ray counting analysis; settings: in vivo, 1.5 h
Mus musculus [5] = assay: Biodistribution in remaining body parts of ddY mouse at 5.6 +/- 2.1 MBq, iv measured per gram of tissue at 35 mins by gamma-ray counting analysis; settings: in vivo
Mus musculus [6] = assay: Biodistribution in remaining body parts of ddY mouse at 5.6 +/- 2.1 MBq, iv measured per gram of tissue at 15 mins by gamma-ray counting analysis; settings: in vivo, 0.25 h
Mus musculus [7] = assay: Biodistribution in remaining body parts of ddY mouse at 14.6 +/- 2.1 MBq, iv measured per gram of tissue at 27.5 mins by PET image analysis; settings: in vivo
Mus musculus [8] = assay: Biodistribution in urinary bladder of ddY mouse at 14.6 +/- 2.1 MBq, iv measured per gram of tissue at 27.5 mins by PET image analysis; settings: in vivo
Kidney [9] = assay: Biodistribution in kidney of ddY mouse at 14.6 +/- 2.1 MBq, iv measured per gram of tissue at 27.5 mins by PET image analysis; settings: in vivo
Liver [10] = assay: Biodistribution in liver of ddY mouse at 14.6 +/- 2.1 MBq, iv measured per gram of tissue at 27.5 mins by PET image analysis; settings: in vivo
Mus musculus [11] = assay: Biodistribution in remaining body parts of ddY mouse at 14.6 +/- 2.1 MBq, iv measured per gram of tissue at 14 mins by PET image analysis; settings: in vivo
Liver [12] = assay: Biodistribution in liver of ddY mouse at 14.6 +/- 2.1 MBq, iv measured per gram of tissue at 14 mins by PET image analysis; settings: in vivo
Kidney [13] = assay: Biodistribution in kidney of ddY mouse at 14.6 +/- 2.1 MBq, iv measured per gram of tissue at 5 mins by PET image analysis; settings: in vivo
Pancreas [14] = assay: Biodistribution in pancreas of ddY mouse at 5.6 +/- 2.1 MBq, iv measured per gram of tissue at 90 mins by gamma-ray counting analysis; settings: in vivo, 1.5 h
Thyroid gland [15] = assay: Biodistribution in thyroid of ddY mouse at 5.6 +/- 2.1 MBq, iv measured per gram of tissue at 90 mins by gamma-ray counting analysis; settings: in vivo, 1.5 h
Mus musculus [16] = assay: Biodistribution in small intestine wall of ddY mouse at 5.6 +/- 2.1 MBq, iv measured per gram of tissue at 90 mins by gamma-ray counting analysis; settings: in vivo, 1.5 h
Spleen [17] = assay: Biodistribution in spleen of ddY mouse at 5.6 +/- 2.1 MBq, iv measured per gram of tissue at 90 mins by gamma-ray counting analysis; settings: in vivo, 1.5 h
Lung [18] = assay: Biodistribution in lung of ddY mouse at 5.6 +/- 2.1 MBq, iv measured per gram of tissue at 90 mins by gamma-ray counting analysis; settings: in vivo, 1.5 h
Mus musculus [19] = assay: Biodistribution in urinary bladder/urine of ddY mouse at 5.6 +/- 2.1 MBq, iv measured per gram of tissue at 60 mins by gamma-ray counting analysis; settings: in vivo, 1 h
Pancreas [20] = assay: Biodistribution in pancreas of ddY mouse at 5.6 +/- 2.1 MBq, iv measured per gram of tissue at 60 mins by gamma-ray counting analysis; settings: in vivo, 1 h
Kidney [21] = assay: Biodistribution in kidney of ddY mouse at 5.6 +/- 2.1 MBq, iv measured per gram of tissue at 60 mins by gamma-ray counting analysis; settings: in vivo, 1 h
Pancreas [22] = assay: Biodistribution in pancreas of ddY mouse at 5.6 +/- 2.1 MBq, iv measured per gram of tissue at 45 mins by gamma-ray counting analysis; settings: in vivo, 0.75 h
Thyroid gland [23] = assay: Biodistribution in thyroid of ddY mouse at 5.6 +/- 2.1 MBq, iv measured per gram of tissue at 45 mins by gamma-ray counting analysis; settings: in vivo, 0.75 h
Mus musculus [24] = assay: Biodistribution in small intestine wall of ddY mouse at 5.6 +/- 2.1 MBq, iv measured per gram of tissue at 45 mins by gamma-ray counting analysis; settings: in vivo, 0.75 h
Pancreas [25] = assay: Biodistribution in pancreas of ddY mouse at 5.6 +/- 2.1 MBq, iv measured per gram of tissue at 35 mins by gamma-ray counting analysis; settings: in vivo
Thyroid gland [26] = assay: Biodistribution in thyroid of ddY mouse at 5.6 +/- 2.1 MBq, iv measured per gram of tissue at 35 mins by gamma-ray counting analysis; settings: in vivo
Lung [27] = assay: Biodistribution in lung of ddY mouse at 5.6 +/- 2.1 MBq, iv measured per gram of tissue at 35 mins by gamma-ray counting analysis; settings: in vivo
Spleen [28] = assay: Biodistribution in spleen of ddY mouse at 5.6 +/- 2.1 MBq, iv measured per gram of tissue at 35 mins by gamma-ray counting analysis; settings: in vivo
Liver [29] = assay: Biodistribution in liver of ddY mouse at 5.6 +/- 2.1 MBq, iv measured per gram of tissue at 35 mins by gamma-ray counting analysis; settings: in vivo
Pancreas [30] = assay: Biodistribution in pancreas of ddY mouse at 5.6 +/- 2.1 MBq, iv measured per gram of tissue at 30 mins by gamma-ray counting analysis; settings: in vivo, 0.5 h
Thyroid gland [31] = assay: Biodistribution in thyroid of ddY mouse at 5.6 +/- 2.1 MBq, iv measured per gram of tissue at 30 mins by gamma-ray counting analysis; settings: in vivo, 0.5 h
Mus musculus [32] = assay: Biodistribution in stomach wall of ddY mouse at 5.6 +/- 2.1 MBq, iv measured per gram of tissue at 30 mins by gamma-ray counting analysis; settings: in vivo, 0.5 h
Mus musculus [33] = assay: Biodistribution in heart wall of ddY mouse at 5.6 +/- 2.1 MBq, iv measured per gram of tissue at 30 mins by gamma-ray counting analysis; settings: in vivo, 0.5 h
Kidney [34] = assay: Biodistribution in kidney of ddY mouse at 5.6 +/- 2.1 MBq, iv measured per gram of tissue at 30 mins by gamma-ray counting analysis; settings: in vivo, 0.5 h
Liver [35] = assay: Biodistribution in liver of ddY mouse at 5.6 +/- 2.1 MBq, iv measured per gram of tissue at 30 mins by gamma-ray counting analysis; settings: in vivo, 0.5 h
Mus musculus [36] = assay: Biodistribution in small intestine wall of ddY mouse at 5.6 +/- 2.1 MBq, iv measured per gram of tissue at 15 mins by gamma-ray counting analysis; settings: in vivo, 0.25 h
Mus musculus [37] = assay: Biodistribution in stomach wall of ddY mouse at 5.6 +/- 2.1 MBq, iv measured per gram of tissue at 15 mins by gamma-ray counting analysis; settings: in vivo, 0.25 h
Lung [38] = assay: Biodistribution in lung of ddY mouse at 5.6 +/- 2.1 MBq, iv measured per gram of tissue at 15 mins by gamma-ray counting analysis; settings: in vivo, 0.25 h

CN([11CH3])C(=N)NC(=N)N
Drug uptake (Liver [1]): Active | Drug uptake [2]: Active | Drug uptake (Kidney [3]): Active | Drug uptake (Mus musculus [4]): 36.827 %ID | Drug uptake (Mus musculus [5]): 20.55 %ID | Drug uptake (Mus musculus [6]): 54.581 %ID | Drug uptake (Mus musculus [7]): 28.532 %ID | Drug uptake (Mus musculus [8]): 66.041 %ID | Drug uptake (Kidney [9]): 4.394 %ID | Drug uptake (Liver [10]): 1.033 %ID | Drug uptake (Mus musculus [11]): 36.878 %ID | Drug uptake (Liver [12]): 1.796 %ID | Drug uptake (Kidney [13]): 6.576 %ID | Drug uptake (Pancreas [14]): 0.339 %ID | Drug uptake (Thyroid gland [15]): 0.013 %ID | Drug uptake (Mus musculus [16]): 1.604 %ID | Drug uptake (Spleen [17]): 0.087 %ID | Drug uptake (Lung [18]): 0.128 %ID | Drug uptake (Mus musculus [19]): 69.767 %ID | Drug uptake (Pancreas [20]): 0.281 %ID | Drug uptake (Kidney [21]): 1.068 %ID | Drug uptake (Pancreas [22]): 0.117 %ID | Drug uptake (Thyroid gland [23]): 0.002 %ID | Drug uptake (Mus musculus [24]): 2.128 %ID | Drug uptake (Pancreas [25]): 0.196 %ID | Drug uptake (Thyroid gland [26]): 0.003 %ID | Drug uptake (Lung [27]): 0.119 %ID | Drug uptake (Spleen [28]): 0.145 %ID | Drug uptake (Liver [29]): 1.478 %ID | Drug uptake (Pancreas [30]): 0.405 %ID | Drug uptake (Thyroid gland [31]): 0.009 %ID | Drug uptake (Mus musculus [32]): 0.173 %ID | Drug uptake (Mus musculus [33]): 0.044 %ID | Drug uptake (Kidney [34]): 1.111 %ID | Drug uptake (Liver [35]): 2.319 %ID | Drug uptake (Mus musculus [36]): 3.409 %ID | Drug uptake (Mus musculus [37]): 0.347 %ID | Drug uptake (Lung [38]): 0.254 %ID
